The test system of data set [1] is Tourette's Tics, Asocial Behavior, and Relief of Hyposexuality. The conditions noted are these: for response to other medications: before sibutramine.
For data set [2], the system named is Reflex Sympathetic Dystrophy Syndrome (RSDS); Complex Regional Pain Syndrome (CRPS). Put plainly: Case history 27. It is filed as in vivo, human.
Data set [3] has as its system Severe Atypical Psychosis. As to the kind of experiment: Case history 1, Sibutramine Patient No. 97. It is filed as in vivo, human.
For data set [4], the system named is Non-Tourette's tics, obsessive-compulsive rituals, and attention deficit hyperactive disorder (ADHD). The conditions noted are these: before sibutramine.
Data set [5] has as its system Sexual Obsessive-Compulsive Behavior, ADD and Executive Function. As to the kind of experiment: Case history 6, Sibutramine Patient No. 77. It is filed as in vivo, human. The conditions noted are these: before sibutramine.
Data set [6] deals with Sexual Function, ADD, and Rage Outbursts. Put plainly: Case history 3, Sibutramine Patient No. 100. It is filed as in vivo, human.
In data set [7] the test system is Severe Post-Traumatic Stress Reaction. The method, then:
Finally, this patient was taken off of fluoxetine 20 mg when sibutramine treatment was initiated.

Data set [8] concerns Asocial Behavior, Violence, and Hyposexuality. Put plainly: Case history 10, Sibutramine Patient No. 54. It is filed as in vivo, human. The conditions noted are these: before sibutramine.
The test system of data set [9] is Tourette's Disease Tics, Violence, and ADHD. Put plainly: Case history 8, Sibutramine Patient No. 47. It is filed as in vivo, human.
In data set [10] the test system is frontal lobe executive function, ADHD, and hyposexuality. The conditions noted are these: human, in vivo.
Data set [11] has as its system Sexual Gender Choice Change. Put plainly: Case history 7, Sibutramine Patient No. 99. It is filed as in vivo, human.
The next data set deals with Sexual Function and ADD. Put plainly: Case history 4, Sibutramine Patient No. 109. It is filed as in vivo, human. The conditions noted are these: before sibutramine.
Data set [12] has as its system Fibromyalgia—Chronic Fatigue Syndrome. The conditions noted are these: before sibutramine.
Setting [13] is: mood swings, cognitive, anger, sexual problems, before sibutramine.
Setting [14] is: over six years before sibutramine.
[15] abbreviates: depression, impulsive behaviors, mood swings, epileptic symptoms.

Like-named read-outs stand apart in the source and are kept apart here.

The source of these data is patent US6696495B2, “Treatment of disorders secondary to organic impairments” (Snowden Pharmaceuticals, LLC, priority 1998, dated 2004).

Regarding `CN1CCN(C2=Nc3cc(Cl)ccc3Nc3ccccc32)CC1` [Clozapine], the “fall of IQ” value in [1] (human, in vivo) is recorded as 30 points.
Consider `CN(C)CCC=C1c2ccccc2CCc2ccccc21` [Elavil], for which the “response to other treatments” value in data set [2] (before sibutramine) was “helped their sleep and slightly increased their appetite but did not affect the pain”.
For the compound `NCC1(CC(=O)O)CCCCC1` [Neurontin], in data set [2] (before sibutramine), the “response to other treatments” value is on record as “ineffective”.
`NC12CC3CC(CC(C3)C1)C2` [amantadine]: the “response of psychosis symptoms to other medications” value (“response of psychosis symptoms” below) in data set [3] (treatments before sibutramine) was “without success”.
Take `CC(N)Cc1ccccc1` (centres unmarked) [amphetamine]: the “response to other medications” value in [4] is “helped their hyperactivity and OCD symptoms in part”.
Take `CC(NC(C)(C)C)C(=O)c1cccc(Cl)c1` (centres unmarked) [bupropion]: the “response to other medications” value in data set [5] and in data set [6] (setting [13]) was “unsuccessful” throughout.
As to `O=C1CC2(CCCC2)CC(=O)N1CCCCN1CCN(c2ncccn2)CC1` [buspirone], the “response of psychosis symptoms” value in [3] (treatments before sibutramine) is reported as “without success”. Moreover, the “response of PTSD symptoms to other medications” value (from here on “response of PTSD symptoms”) in data set [7] (human, in vivo) is on record as “unsuccessful”.
As for `OC(O)C(Cl)(Cl)Cl` [chloral hydrate], the “response to other medications” value in data set [8] is “without any changes in their speech or mode of communication”.
For the compound `CN(C)CCCN1c2ccccc2CCc2ccc(Cl)cc21` [clomipramine], the “response to other medications” value in [1] is reported as “without success”; in data set [9] (setting [14]), “without any good results”.
Regarding `Clc1cccc(Cl)c1N=C1NCCN1` [clonidine], in data set [9] (setting [14]), the “response to other medications” value was “without any good results”.
For the compound `CNCCCN1c2ccccc2CCc2ccccc21` [desipramine], the “response to other medications” value in data set [6] (setting [13]) is on record as “not helpful”; in data set [9] (setting [14]), “without any good results”.
Consider `CCN[C@@H](C)Cc1cccc(C(F)(F)F)c1` [dextrofenfluramine], for which the “response to other medications” value in data set [1] was “without success”.
Consider `COc1cc2c(cc1OC)C(=O)C(CC1CCN(Cc3ccccc3)CC1)C2` (centres unmarked) [donepezil], for which the “response to other medications” value in [4] is listed as “unsuccessful”; in data set [10] it was “unsuccessful”; in data set [1], “without success”; in [11] (setting [15]) it was “refractory”; in data set [6] (setting [13]) it was “not helpful”; in [9] (setting [14]), “helped their cognitive problems without aggravating their tics or their outbursts”.
With `NC(=O)OCC(COC(N)=O)c1ccccc1` [felbamate], the “response to other medications” value in data set [1] is reported as “without success”; in [9] (setting [14]), “without any good results”.
In the case of `CCNC(C)Cc1cccc(C(F)(F)F)c1` (centres unmarked) [fenfluramine], the “response to other medications” value is on record as “without any changes in their speech or mode of communication” in [8], “without success” in data set [1], “not helpful” in data set [6] (setting [13]) and “without any good results” in data set [9] (setting [14]). The “response of PTSD symptoms” value in [7] (before sibutramine) is listed as “unsuccessful”.
Take `OCCN1CCN(CCCN2c3ccccc3Sc3ccc(C(F)(F)F)cc32)CC1` [fluphenazine]: the “response to other medications” value in [1] is listed as “without success”.
`COCCCC/C(=N\OCCN)c1ccc(C(F)(F)F)cc1` [fluvoxamine]: the “response to other medications” value in data set [4] was “helped their hyperactivity and OCD symptoms in part”; in [1] it was “without success”.
As to `O=C(CCCN1CCC(O)(c2ccc(Cl)cc2)CC1)c1ccc(F)cc1` [haloperidol], the “response to other medications” value in [8] is “without any changes in their speech or mode of communication”; in data set [1], “without success”; in data set [5], “unsuccessful”. Further, in data set [3] (treatments before sibutramine), the “response of psychosis symptoms” value is given as “without success”.
With `OCCOCCN1CCN(C(c2ccccc2)c2ccc(Cl)cc2)CC1` (centres unmarked) [hydroxyzine], in [9] (setting [14]), the “response to other medications” value is reported as “without any good results”.
Consider `CN(C)CCCN1c2ccccc2CCc2ccccc21` [imipramine], for which the “response to other medications” value was “refractory” in data set [11] (setting [15]) and “unsuccessful” in data set [6] (setting [13]).
For `Nc1nnc(-c2cccc(Cl)c2Cl)c(N)n1` [lamotrigine], the “response to other medications” value in data set [4] was “without success”; in [10], “unsuccessful”; in data set [1] it was “without success”; in the data set with Sexual Function and ADD, “unsuccessful”; in data set [6] (setting [13]) it was “not helpful”; in data set [9] (setting [14]), “without any good results”.
Turning to `CCN(CC)CC(=O)Nc1c(C)cccc1C` [lidocaine], the “response to other treatments” value in data set [2] (in vivo) was “numbed the area”.
`O=C([O-])[O-].[Li+].[Li+]` [lithium carbonate]: the “response to other medications” value is “refractory” in [11] (human, in vivo); “unsuccessful and made their obesity worse” in data set [6] (human, in vivo).
`O=C1Nc2ccc(Cl)cc2C(c2ccccc2Cl)=NC1O` (centres unmarked) [lorazepam]: the “response of psychosis symptoms” value in data set [3] (treatments before sibutramine) was “without success”.
For the compound `COc1ccc2cc(CCC(C)=O)ccc2c1` [nabumetone], the “response to other medications” value in data set [12] is “unsuccessfully”.
Consider `CC(C)(C)NCC(O)COc1cccc2c1CC(O)C(O)C2` (centres unmarked) [nadolol], for which the “response to other medications” value in data set [8] is “without any changes in their speech or mode of communication”.
As to `CNCCC=C1c2ccccc2CCc2ccccc21` [nortriptyline], the “response to other medications” value in data set [6] (human, in vivo) is recorded as “unsuccessful”.
In the case of `O=C(O)CCc1nc(-c2ccccc2)c(-c2ccccc2)o1` [oxaprozin], the “response to other medications” value in [12] is “unsuccessfully”.
As to `NC(=O)N1c2ccccc2CC(=O)c2ccccc21` [oxcarbazepine], the “response of PTSD symptoms” value in [7] (before sibutramine) is reported as “unsuccessful”.
In the case of `Fc1ccc([C@@H]2CCNC[C@H]2COc2ccc3c(c2)OCO3)cc1` [paroxetine], the “response of psychosis symptoms” value in [3] (treatments before sibutramine) is “without success”.
Regarding `NC1=NC(=O)C(c2ccccc2)O1` (centres unmarked) [pemoline], the “response of PTSD symptoms” value in data set [7] (before sibutramine) is recorded as “unsuccessful”.
Regarding `CC(C)(N)Cc1ccccc1` [phenteramine], the “response to other medications” value in data set [6] (setting [13]) is listed as “helped them lose a small amount of weight but did not affect their other problems”.
For `O=C1NC(=O)C(c2ccccc2)(c2ccccc2)N1` [phenytoin], the “response of PTSD symptoms” value in [7] (before sibutramine) is listed as “unsuccessful”. Besides, the “response to other medications” value in [9] (setting [14]) is “without any good results”.
In the case of `CC(C)NCC(O)COc1cccc2ccccc12` (centres unmarked) [propranolol], the “response to other medications” value in data set [8] is listed as “without any changes in their speech or mode of communication”; with Sexual Function and ADD it was “unsuccessful”; in data set [9] (setting [14]) it was “without any good results”.
On to `OCCOCCN1CCN(C2=Nc3ccccc3Sc3ccccc32)CC1` [quetiapine], for which the “response to other medications” value in data set [8] was “without any changes in their speech or mode of communication”; in data set [9] (setting [14]), “without any good results”. Moreover, the “response of psychosis symptoms” value in [3] (treatments before sibutramine) is given as “did not control their symptoms”.
As to `Cc1nc2n(c(=O)c1CCN1CCC(c3noc4cc(F)ccc34)CC1)CCCC2` [risperidone], in [3] (human, in vivo), the “response of psychosis symptoms” value was “without success”. Besides, the “response to other medications” value in [9] (human, in vivo) is on record as “without any good results”.
As for `CCCN(CCC)CCc1cccc2c1CC(=O)N2` [ropinirole], the “response to other medications” value in data set [4] is “unsuccessful”.
In the case of `C#CCN(C)[C@H](C)Cc1ccccc1` [selegiline], the “response to other medications” value in [10] is listed as “unsuccessful”; in data set [1], “without success”; in data set [6] (setting [13]), “not helpful”; in data set [9] (setting [14]), “without any good results”.
For the compound `CN[C@H]1CC[C@@H](c2ccc(Cl)c(Cl)c2)c2ccccc21` [sertraline], the “response to other medications” value in data set [11] (setting [15]) is recorded as “refractory”.
For `CCCc1nn(C)c2c(=O)[nH]c(-c3cc(S(=O)(=O)N4CCN(C)CC4)ccc3OCC)nc12` [sildenafil], the “response to other medications” value was “helped correct the mechanical dysfunction but not the libido” in [10]; “only increased sexual function but not libido” with Sexual Function and ADD; “did not help their sexual libido” in data set [6] (setting [13]).
On to `Nc1c2c(nc3ccccc13)CCCC2` [tacrine], for which the “response to other medications” value in data set [1] is given as “without success”; in [9] (setting [14]), “without any good results”.
Regarding `CSc1ccc2c(c1)N(CCC1CCCCN1C)c1ccccc1S2` (centres unmarked) [thioridazine], in [8], the “response to other medications” value is “without any changes in their speech or mode of communication”.
With `N[C@@H](Cc1cc(I)c(Oc2cc(I)c(O)c(I)c2)c(I)c1)C(=O)O` [thyroxine], in data set [6] (setting [13]), the “response to other medications” value was “not helpful”.
In the case of `COc1cccc(C2(O)CCCCC2CN(C)C)c1` (centres unmarked) [tramadol], the “response to other medications” value in data set [12] is given as “unsuccessfully”.
Turning to `CN1CCN(CCCN2c3ccccc3Sc3ccc(C(F)(F)F)cc32)CC1` [trifluoperazine], in [3] (treatments before sibutramine), the “response of psychosis symptoms” value is reported as “without success”.
Regarding `COC(=O)[C@@H]1[C@H]2C[C@H]3c4[nH]c5ccccc5c4CCN3C[C@@H]2CC[C@@H]1O` [yohimbine], the “response to other medications” value in the data set on Sexual Function and ADD is given as “unsuccessful”.
